Measurements taken from patent US6251897A, “6-phenyltetrahydro-1,3-oxazin-2-one derivative and pharmaceutical composition containing the same” (Nikken Chemicals Co., LTD, priority 1996, dated 2001).

How the values were obtained:
[1] = tested on: Type IV PDE; experiment: PDE inhibitory activity, type IV isozyme (3H-cAMP hydrolysis); assay type: biochemical; conditions: partially purified from rat neutrophils, 30° C., 30 minutes
How it was run: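 Enzyme partially purified from rat neutrophils by ion-exchange chromatography. Reaction in 50 mM Tris-HCl with 5 mM MgCl2, 30 min at 30° C, stopped by boiling; product converted by 5'-nucleotidase and 3H-adenosine counted after ion-exchange separation. IC50 given in M.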

[2] = tested on: antigen-induced bronchospasm in guinea pig; experiment: Inhibitory effect on antigen-induced bronchospasm (Konzett-Roessler, ovalbumin-sensitized); assay type: in vivo, guinea pig (Hartley male); conditions: Cavia porcellus; intravenous, 10 minutes before antigen (0.2 mg/kg OA i.v.); read-out: Action for suppressing antigen-induced bronchospasms ED50
Experimental: A Hartley male guinea pig was sensitized by intramuscular administration of […] Ovalbumin (OA) on first day and fourth day, and used after 24th day. A trachial canula was introduced in the guinea pig anesthetized with pentobarbital and artificial ventilation was performed 25 to 29 days after the first sensitization. The overflow of the ventilation was measured by the Konzett-Roessler method while 0.2 mg/kg OA were administered intravenously. The test compound was dissolved in polyethylene glycol 400 and intravenously administered 10 minutes before administration of the antigens.

[3] = tested on: rat neutrophils; experiment: Inhibition of super oxide anion release from rat neutrophils (A23187-stimulated chemiluminescence); assay type: cell-based, rat (Wister); conditions: Neutrophil, stimulated with 0.3 μM calcium ionophore A23187, read-out: Inhibitory action of super oxide anion release from rat neutrophils IC50
Experimental: The release of super oxide anions was measured so as to study the inhibitory effects of the compound on inflammatory leukocytes, that is, neutrophils.
Blood sample was obtained from Wister rats anesthetized with ether. It was superposed on a blood cell separation solution (Polymorphoprep 1.113, made by Naicomet Co. (phonetic)) and the neutrophils were separated by centrifugation. The neutrophils were resuspended in a Hank's balanced salt solution at a concentration of 0.5×10^4 cell/ml. 0.1 mM of Lusigenin and the test substance dissolved in DMSO were added to 2 ml of the cell-suspension. The chemiluminescence generated by stimulation of 0.3 μM calcium ionophore A23187 was measured by a chemiluminescence reader so as to evaluate the release of super oxide anions.

IC50 [1]: 1400 nM
IC50 [3]: 50 nM
SMILES: COc1ccc(C2CCN(Cc3ccc(Br)cc3)C(=O)O2)cc1OC1CCCC1 (stereo not drawn) [Compound No. 11, 3-(4-bromobenzyl)-6-(3-cyclopentyloxy-4-methoxyphenyl)-3,4,5,6-tetrahydro-2H-1,3-oxazin-2-one]
ED50 [2]: 3.1 mg/kg
